From patent US20020039601A1, “Cancer cell growth suppressor and cell differentiation inducer and method for manufacturing the same” (priority 2000, published 2002)

Legend:
HL-60 cells [1] = details: HL60 cells, cited from earlier work
[2] = tested on: carcinoma strain of the colon (Colo201 cells); assay: CD-DST cancer cell growth suppression test, Colo201; format: cell-based, human; details: 67.6 μg of capsanthin (FIG. 6)
Text: Employing a drug sensitivity test method (CD-DST method), Toma-pi water-soluble component condensed liquid of different concentrations was examined for growth suppressing effect at the contact time set at seven days.
The CD-DST method herein referred to is a well-known experiment method called a collagen gel drop method, and its steps are shown in FIG. 1. Its details are also described in “Establishment of Collagen Gel Droplet Embedded Culture Drug Sensitivity Test (CD-DST) and consideration about its clinical utility” in “Cancer and Chemical Treatment” (published in 1995, vol.22, 1933-1939 pages).
As a method of cultivating cancer cells, a human cancer cell first generation cultivation system kit (Plymaster made by Nitta Gelatine Co.), was used and cells were cultivated according to a normal method (reference document J. Jpn. Soc. Cancer Ther. 29(7):946-956, 1994).
The growth suppressing effect was judged in terms of suppressing percentage (T/C%) which is the ratio of a treated group to an untreated group (control group). Units μg and mg shown in FIGS. 2-7 show the concentrations of Toma-pi water-soluble components in terms of the weight of Toma-pi powder (dried powder of Capsicum Annuum L.Var.grossumn) used as raw material for water extracting. It is hereinbelow referred to as “converted concentration of Toma-pi water-soluble components”.

HL-60 cells [3] = assay: Human leukemia differentiation inducing test (NBT reducing ability); format: cell-based; details: HL60 cells
Experimental: The differentiation inducing test using HL-60 cells, which are leukemia cells, was performed according to “New Cultured Cell Experiment Method” (written by Toshio Kuroki, on pages 286-289, published by Yodosha), “Jpn. J-Cancer” (Res. 81, 807-812, August 1990), and “Clinical Test Method” written by Izumi Kamei, page 358, published by Kinbara Shuppan) to examine the differentiation inducing ability with the NBT reducing ability as an index.
It is known that for HL60 cells, differentiation is induced by retinoic acid, DMSO or active type vitamin D3. Active type vitamin D3 (medicine for external use, treatment of psoriasis) and all-trans retinoic acid (ATRA) are used as oral medicine for treating leukemia. When leukemia cells differentiate, azurophile granules in the cells reduce. If they differentiate into granulocyte, cell nucleus segment. […] As a convenient marker for differentiation induction of leukemia cells, one method is to measure nitro blune tetrazolium (NBT) reducing ability.
The NBT test uses the fact that when promyelocytic leukemia cells such as HL60 differentiate into monocyte/macrophage, production of active oxygen increases. That is to say, formation of insoluble formozan produced when NBT is reduced due to oxidation/reduction reaction by the active oxygen is used as a marker of differentiation. Active vitamin D3 has a differentiating ability at 10^−9 to 10^−6 M, ATRA at 10^−8 to 10^−6 M, and DMSO at 1.2 to 1.3%. At the respective maximum concentrations, they can differentiate by about 90% or over. Judging by the NBT reducing ability, the results were examined.

Molecule: CC1=C(/C=C/C(C)=C/C=C/C(C)=C/C(=O)O)C(C)(C)CCC1 [ATRA, all-trans retinoic acid]
- concentration having differentiating ability (HL-60 cells [1]): 10^−8 to 10^−6 M

Molecule: C[S+](C)[O-] [DMSO]
- concentration having differentiating ability (HL-60 cells [1]): 1.2 to 1.3%

Molecule: CC1=C(/C=C/C(C)=C/C=C/C(C)=C/C=C/C=C(C)/C=C/C=C(C)/C=C/C(=O)[C@]2(C)C[C@@H](O)CC2(C)C)C(C)(C)C[C@H](O)C1 [capsanthin]
- growth suppression [2]: 24%
- active type vitamin D3 concentration from which differentiation was promoted in combination (HL-60 cells [3]; capsanthin 200 μg with active type vitamin D3 (FIG. 9)): ≥ 75 pM
- active type vitamin D3 concentration at which differentiation was promoted in combination (HL-60 cells [3]; capsanthin 400 μg with active type vitamin D3 (FIG. 9)): 10^−11 M

Molecule: active type vitamin D3
- NBT reducing rate (HL-60 cells [3]; 10^−9 M): about 5%
- differentiating ability (HL-60 cells [1]; 10^−10 M, alone): does not ordinarily show any differentiating ability
- concentration having differentiating ability (HL-60 cells [1]): 10^−9 to 10^−6 M
